# Several values for one entry are separate records, joined by “and”; a condition that tells them apart may be missing. Equal entries are not always repeated.
# Legend:
# hrpA promoter (T3SS) [1] = test: GFP reporter plasmid phrpA, flow cytometry (FACS) of hrpA promoter activity; assay type: cell-based, Dickeya dadantii 3937; conditions: for change of average GFP fluorescence intensity of Ech3937 (phrpA) vs MM alone, in words: 0.1 mM; for GFP Mean Fluorescence Intensity, hrpA promoter: MM + 0.1 mM compound
# In short: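 D. dadantii (Ech) 3937 carrying the phrpA promoter–GFP transcriptional fusion was grown in T3SS minimal medium with 100 μM compound, starting from an inoculum of OD600 1.0. GFP was read by flow cytometry at 12 and 24 h. Values are mean fluorescence intensity of three replicates ± SD, with compound-free MM as control.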
# hrpS promoter = test: GFP reporter plasmid phrpS, flow cytometry of hrpS promoter activity; assay type: cell-based, Dickeya dadantii 3937; conditions: for GFP Mean Fluorescence Intensity, hrpS promoter: MM + 0.1 mM compound; for mean fluorescence intensity of GFP, hrpS promoter: 3937 (phrpS), MM + 100 μM
# Method: (§1) FACS analysis of promoter activity of dspE, hrpA, hrpL, hrpN, and hrpS was carried out as described (Peng et al., 2006). Briefly, the wild-type Ech3937 and the mutant strains carrying the promoter reporter plasmid were grown on LB broth at 28° C. overnight and transferred to appropriate media. For FACS analysis, samples were collected by centrifugation, washed with 1× phosphate buffer saline (PBS) at 13,000 rpm for 1 min, and re-suspended in 1×PBS to ca 10^6 CFU/ml prior to being run in a FACS Calibur flow cytometer (BD Biosciences, CA). Three replicates were performed for each treatment.
# To test for an inhibitory effect on T3SS hrpS expression, the reporter plasmid phrpS was used to measure the effects of these compounds on hrpA expression.
# rsmB RNA = test: qRT-PCR relative mRNA level of rsmB; assay type: cell-based, Dickeya dadantii 3937; conditions: for rsmB mRNA relative expression ratio (MM alone normalized to 1): Ech3937 in MM supplemented with compound
# Method: Bacterial strains were grown in MM. Total RNA from the bacterial cells was isolated by using the TRI reagent method (Sigma, Mo.) and treated with Turbo DNA-free DNase kits (Ambion, Tex.) as described (Peng et al., 2006). An iScript cDNA Synthesis Kit (Bio-Rad, CA) was used to synthesize cDNA from 0.5 μg of treated total RNA. The Real Master Mix (Eppendorf, Westbury, N.Y.) was used for qRT-PCR reaction to quantify the cDNA level of target genes in different samples. The rplU was used as the endogenous control for data analysis. qRT-PCR data were analyzed using Relative Expression Software Tool as described (Pfaffl, M. W., Horgan, G. W., and Dempfle, L. (2002) Relative expression software tool (REST) for group-wise comparison and statistical analysis of relative expression results in real-time PCR. Nucleic Acids Res 30:e36.).
# hrpA promoter (T3SS) [2] = test: hrpA promoter-probe phrpA in Erwinia amylovora 273, flow cytometry; assay type: cell-based; conditions: Ea273 (phrpA), HIM + 100 μM compound
# In short: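 Erwinia amylovora 273 carrying an hrpA promoter–GFP fusion (pPROBE-NT) was grown in hrp-inducing medium with 100 μM compound or DMSO. Promoter activity read as GFP intensity by flow cytometry at 6 h and 9 h.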
# [3] = tested on: pPROBE-AT vector without promoter insert; test: pPROBE-AT vector control, flow cytometry; assay type: cell-based, Dickeya dadantii 3937; conditions: for GFP Mean Fluorescence Intensity, vector control: Ech3937 (pPROBE-AT), MM + 0.1 mM compound; for mean fluorescence intensity of GFP, vector control: 3937 (pPROBE-AT), MM + 100 μM
# Method: as §1
# hrpL promoter = test: GFP reporter plasmid phrpL, flow cytometry of hrpL promoter activity; assay type: cell-based, Dickeya dadantii 3937; conditions: for GFP Mean Fluorescence Intensity, hrpL promoter: MM + 0.1 mM compound; for mean fluorescence intensity of GFP, hrpL promoter: 3937 (phrpL), MM + 100 μM
# Method: as §1
# [4] = hrpL mutant WPP96 (phrpA), 12 h
# [5] = hrpL mutant WPP96 (phrpS), 12 h
# [6] = Trial 1, MM supplemented with compound at 100 μM
smiles,measurement,setting,value
"O=C(O)/C=C/c1ccccc1 [Compound 001, trans-cinnamic acid]","change of average GFP fluorescence intensity of Ech3937 (phrpA) vs MM alone, in words",hrpA promoter (T3SS) [1]; 12 h,doubled
same,"GFP Mean Fluorescence Intensity, hrpA promoter","hrpA promoter (T3SS) [1]; Ech3937 (phrpA), 6 h",22.3 ± 2.1
same,"GFP Mean Fluorescence Intensity, hrpA promoter","hrpA promoter (T3SS) [1]; Ech3937 (phrpA), 24 h",203.7 ± 16.1
same,"GFP Mean Fluorescence Intensity, hrpA promoter",hrpA promoter (T3SS) [1]; [4],6.2 ± 0.6
same,"GFP Mean Fluorescence Intensity, hrpS promoter","hrpS promoter; Ech3937 (phrpS), 12 h",54 ± 2
same,"GFP Mean Fluorescence Intensity, hrpS promoter",hrpS promoter; [5],360 ± 16
same,rsmB mRNA relative expression ratio (MM alone normalized to 1),rsmB RNA,1.58
same,"Avg MFI ± SD, hrpA expression",hrpA promoter (T3SS) [2]; 6 h,471.2 ± 12.6
same,"Avg MFI ± SD, hrpA expression",hrpA promoter (T3SS) [2]; 9 h,432.6 ± 17.8
same,"GFP Mean Fluorescence Intensity, vector control",[3]; 12 h,1.9 ± 0
same,"GFP Mean Fluorescence Intensity, hrpL promoter","hrpL promoter; Ech3937 (phrpL), 12 h",19 ± 1
same,"GFP Mean Fluorescence Intensity, hrpL promoter","hrpL promoter; hrpL mutant WPP96 (phrpL), 12 h",331 ± 27
"O=C(O)/C=C/c1ccccc1O [Compound 006, Ortho-coumaric acid]","change of average GFP fluorescence intensity of Ech3937 (phrpA) vs MM alone, in words",hrpA promoter (T3SS) [1]; 12 h,doubled
same,"GFP Mean Fluorescence Intensity, hrpA promoter","hrpA promoter (T3SS) [1]; Ech3937 (phrpA), 12 h, listed as OCA",82 ± 1
same,"GFP Mean Fluorescence Intensity, hrpA promoter","hrpA promoter (T3SS) [1]; Ech-Rif (phrpA), 6 h",18 ± 0
same,"GFP Mean Fluorescence Intensity, hrpA promoter","hrpA promoter (T3SS) [1]; Ech-Rif (phrpA), 12 h",51 ± 2
same,"GFP Mean Fluorescence Intensity, hrpA promoter","hrpA promoter (T3SS) [1]; Ech-Rif (phrpA), 24 h",49 ± 1
same,"GFP Mean Fluorescence Intensity, hrpA promoter","hrpA promoter (T3SS) [1]; gacA mutant Ech137 (phrpA), 6 h",4.9 ± 0.1
same,"GFP Mean Fluorescence Intensity, hrpA promoter","hrpA promoter (T3SS) [1]; gacA mutant Ech137 (phrpA), 12 h",5.9 ± 0.1
same,"GFP Mean Fluorescence Intensity, hrpA promoter","hrpA promoter (T3SS) [1]; gacA mutant Ech137 (phrpA), 24 h",8.3 ± 0
same,"GFP Mean Fluorescence Intensity, hrpA promoter",hrpA promoter (T3SS) [1]; [4],6.5 ± 0.2
same,"GFP Mean Fluorescence Intensity, hrpS promoter","hrpS promoter; Ech3937 (phrpS), 12 h",56 ± 1
same,"GFP Mean Fluorescence Intensity, hrpS promoter",hrpS promoter; [5],350 ± 17
same,rsmB mRNA relative expression ratio (MM alone normalized to 1),rsmB RNA,1.4
same,"Avg MFI ± SD, hrpA expression",hrpA promoter (T3SS) [2]; 6 h,443 ± 16.9
same,"Avg MFI ± SD, hrpA expression",hrpA promoter (T3SS) [2]; 9 h,437.8 ± 21.1
same,"GFP Mean Fluorescence Intensity, vector control",[3]; 6 h,2.0 ± 0
same,"GFP Mean Fluorescence Intensity, vector control",[3]; 12 h,2.0 ± 0
same,"GFP Mean Fluorescence Intensity, vector control",[3]; 24 h,1.9 ± 0
same,"GFP Mean Fluorescence Intensity, hrpL promoter","hrpL promoter; Ech3937 (phrpL), 12 h",19 ± 0
"O=C(/C=C/c1ccc(O)cc1)NO [Compound 103, trans-4-Hydroxycinnamohydroxamic acid]",reduction of hrpA expression,hrpA promoter (T3SS) [1]; 10 μM added to the medium,approximately 4 fold
same,"inhibitory activity on T3SS gene (hrpA) expression, in words","hrpA promoter (T3SS) [1]; D. dadantii 3937, reporter plasmid phrpA, 100 μM",showed inhibitory effect
same,minimal effective concentration,"hrpA promoter (T3SS) [1]; Dickeya dadantii, read-out: minimal inhibitory concentration on hrpA expression (concentration showing inhibitory effect)",10 µM
same,"Mean Fluorescence Intensity of GFP (hrpA, phrpA)",hrpA promoter (T3SS) [1]; [6],9.3 ± 0.3
same,"mean fluorescence intensity of GFP, hrpS promoter",hrpS promoter; 12 h,27.7 ± 1.5
same,"mean fluorescence intensity of GFP, hrpS promoter",hrpS promoter; 24 h,26.4 ± 0.6
same,"inhibitory effect on T3SS hrpS expression, in words",hrpS promoter; reporter plasmid phrpS,inhibited hrpS
same,"Avg MFI ± SD, hrpA expression",hrpA promoter (T3SS) [2]; 6 h,206.9 ± 3.9
same,"Avg MFI ± SD, hrpA expression",hrpA promoter (T3SS) [2]; 9 h,168.2 ± 24.9
same,"mean fluorescence intensity of GFP, vector control",[3]; 12 h,3.0 ± 0.6
same,"mean fluorescence intensity of GFP, vector control",[3]; 24 h,4.3 ± 0.6
same,"mean fluorescence intensity of GFP, hrpL promoter",hrpL promoter; 12 h,7.6 ± 0.2
same,"mean fluorescence intensity of GFP, hrpL promoter",hrpL promoter; 24 h,7.7 ± 0.2
"O=C(O)/C=C/c1ccc(O)cc1 [Compound 004, para-coumaric acid]","inhibitory effect on hrpA at 10 μM, in words",hrpA promoter (T3SS) [1]; 10 μM added to T3SS-inducing minimal medium (MM),No inhibitory effect
same,"GFP Mean Fluorescence Intensity, hrpA promoter","hrpA promoter (T3SS) [1]; Ech3937 (phrpA), 12 h, listed as PCA",9.2 ± 0.4
same,"Mean Fluorescence Intensity of GFP (hrpA, phrpA)",hrpA promoter (T3SS) [1]; [6],9.4 ± 0.1
same,"Mean Fluorescence Intensity of GFP (hrpA, phrpA)","hrpA promoter (T3SS) [1]; Trial 2, MM supplemented with compound at 100 μM",9.3 ± 0.2
same,"effect on GFP fluorescence intensity of Ech3937 (phrpA), in words","hrpA promoter (T3SS) [1]; concentrations at 0.001, 0.005 and 0.01",did not result in substantial reduction of GFP fluorescence intensity
same,"GFP Mean Fluorescence Intensity, hrpA promoter",hrpA promoter (T3SS) [1]; [4],7.3 ± 0.1
same,"GFP Mean Fluorescence Intensity, hrpA promoter","hrpA promoter (T3SS) [1]; hrpL mutant WPP96 (phrpA), 24 h",9.0 ± 1.6
same,"GFP Mean Fluorescence Intensity, hrpA promoter","hrpA promoter (T3SS) [1]; hrpS mutant WPP90 (phrpA), 12 h",7.9 ± 0.2
same,"GFP Mean Fluorescence Intensity, hrpA promoter","hrpA promoter (T3SS) [1]; hrpS mutant WPP90 (phrpA), 24 h",9.3 ± 0.2
same,"GFP Mean Fluorescence Intensity, hrpA promoter","hrpA promoter (T3SS) [1]; hrpX mutant WPP67 (phrpA), 12 h",7.9 ± 0.2
same,"GFP Mean Fluorescence Intensity, hrpA promoter","hrpA promoter (T3SS) [1]; hrpX mutant WPP67 (phrpA), 24 h",9.0 ± 1.3
same,"GFP Mean Fluorescence Intensity, hrpA promoter","hrpA promoter (T3SS) [1]; hrpY mutant WPP92 (phrpA), 12 h",6.9 ± 0.1
same,"GFP Mean Fluorescence Intensity, hrpA promoter","hrpA promoter (T3SS) [1]; hrpY mutant WPP92 (phrpA), 24 h",9.4 ± 0.7
same,"rsmB mRNA compared with MM alone, in words",rsmB RNA; 0.1 mM in MM,No significant difference
same,"Avg MFI ± SD, hrpA expression",hrpA promoter (T3SS) [2]; 6 h,920.6 ± 29.1
same,"Avg MFI ± SD, hrpA expression",hrpA promoter (T3SS) [2]; 9 h,993.8 ± 43.3
same,"GFP Mean Fluorescence Intensity, vector control","[3]; 12 h, listed as PCA",2.2 ± 0.2 and 2.3 ± 0.1
same,"GFP Mean Fluorescence Intensity, vector control",[3]; 24 h,4.9 ± 0.1
same,"GFP Mean Fluorescence Intensity, hrpL promoter","hrpL promoter; Ech3937 (phrpL), 12 h",7.8 ± 0.1

# From US9260382B2, “Methods of reducing virulence in bacteria” (priority 2010, dated 2016)
